# Results from US5468760A, “Aralkyl-N-hydroxyureas as inhibitors of 5-lipoxygenase and oxidation of low density lipoprotein” (American Home Products Corporation, priority 1993, dated 1995).
# Tests used:
# [1] = tested on: Lipoxygenase; assay: Ex-Vivo Measurement of Lipoxygenase Inhibition in Orally Dosed Rats (LTB4); parameters: species or system rat (male Sprague Dawley); details: p.o.
# Protocol: 2. Ex-Vivo Measurement of Lipoxygenase Inhibition in Orally Dosed Rats
# Male Sprague Dawley rats (Charles River) weighing between 180 g and 200 g were dosed orally with an invention compound (1-25 mg/kg, po) suspended in 0.5% Tween 80®. After an interval of 3 or 6 hours, the rats were anesthetized with metofane (n=4/group) and blood collected in heparinized tubes. White blood cell counts and differentials were made. One ml of blood from each animal was placed in a 5 ml plastic tube in a shaker bath at 37° C. A23187 at a final concentration of 10 μM was added to the blood and the blood vortexed and incubated for 15 min at […] with gentle shaking. Incubation was terminated by vortexing sample and centrifuging immediately at 1200 xG for 15 min at 4° C. The plasma was transferred to 15 ml plastic tubes each containing 8 ml of methanol to precipitate protein followed by vortexing. The samples were stored at -70 ° C. overnight and the next day the samples were centrifuged at 800 xG for 15 min to pellet the precipitate. The samples were dried in a Savant SpeedVac Concentrator Model SVC 200H and reconstituted to the original volume with cold RIA or ELISA buffer. The reconstituted samples were stored at -70° C. until assayed. The assay for LTB4 was performed according to the directions of the [^3 H]RIA kit or ELISA kit (Seragen). The total metabolite level in 1 ml of blood is calculated and reported as ng/10^6 neutrophils. Significance is determined by a one-way analysis of variance with LSD comparisons to control (p≤0.05).
# [2] = biological target: T1, 5-Lipoxygenase (Homo sapiens, UniProt P09917); assay: Inhibition of 5-Lipoxygenase in Human Whole Blood (LTB4, calcium ionophore A23187); type: cell-based; details: 1 μM
# T1 construct: endogenous in cells; host or cells: human whole blood from male donors (results expressed per 10^6 neutrophils)
# T1 sequence (P09917 1-674): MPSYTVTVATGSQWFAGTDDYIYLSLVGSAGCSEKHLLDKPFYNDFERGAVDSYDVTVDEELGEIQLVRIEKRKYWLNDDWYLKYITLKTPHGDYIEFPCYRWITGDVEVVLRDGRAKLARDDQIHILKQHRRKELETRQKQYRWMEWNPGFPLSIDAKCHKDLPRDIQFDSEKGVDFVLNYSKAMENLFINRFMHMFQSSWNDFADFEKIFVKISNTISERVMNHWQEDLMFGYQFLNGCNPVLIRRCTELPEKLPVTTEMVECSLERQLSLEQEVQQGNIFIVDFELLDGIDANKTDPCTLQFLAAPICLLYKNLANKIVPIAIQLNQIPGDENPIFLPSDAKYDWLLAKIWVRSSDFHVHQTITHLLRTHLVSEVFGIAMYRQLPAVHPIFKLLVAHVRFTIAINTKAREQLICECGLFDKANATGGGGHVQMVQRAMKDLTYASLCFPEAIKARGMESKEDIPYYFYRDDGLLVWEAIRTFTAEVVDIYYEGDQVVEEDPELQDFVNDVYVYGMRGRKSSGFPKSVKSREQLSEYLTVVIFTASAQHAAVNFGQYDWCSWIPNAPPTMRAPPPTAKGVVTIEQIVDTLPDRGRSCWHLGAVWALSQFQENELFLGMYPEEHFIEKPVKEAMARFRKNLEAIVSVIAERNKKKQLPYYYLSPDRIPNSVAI
# Protocol: 1. Inhibition of 5-Lipoxygenase in Human Whole Blood
# Blood is obtained in 50-100 ml quantities from male donors. White blood cell counts and differentials are made. Two ml of blood are placed in a 15 ml polypropylene test tube. Test compounds are solubilized in dimethylsulfoxide and diluted in 1:10 in 10% bovine serum albumin in phosphate buffered saline, pH 7.4 resulting in a final dimethylsulfoxide concentration of 0.1% in the blood. Then, solutions of test compounds are added to the blood in a shaking water bath at 37° C. for 10 minutes prior to the addition of 30 μM calcium ionophore (A23 187, Sigma). After ionophore administration, whole blood samples are mixed and incubated for 20 minutes at 37° C. in a shaking water bath. Incubation is terminated by placing samples in an ice bath and immediately adding ethylene glycol-bis-(β-aminoethyl ether)-N,N,N',N'-tetraaceticacid (10 mM). Samples are mixed and centrifuged at 1200 x g for 15 minutes at 4° C. Preparation of samples for evaluation by RIA or ELISA is carried out by the following protocol. Plasma is removed from sample tubes, placed in 15 ml polypropylene test tubes containing 8 ml methanol, and then vortexed to precipitate protein. Samples are stored at -70° C. overnight. The next day, samples are centrifuged at 200 x g for 15 minutes at 4° C. to pellet the precipitate. Samples are dried in a Savant SpeedVac Concentrator, Model SVC 200H, reconstituted to original volume with ice cold RIA or ELISA buffer, and stored at -70° C. until assayed. The assay for eicosanoids (LTB4, TxB2, and PGE2) is performed as described by the manufacturer of the [^3 H]-RIA kit or ELISA kit (LTB4 -Amersham, TxB2 and PGE2 -Caymen Chemical).
# The total eicosanoid level in 2 ml of blood is calculated and reported as ng/10^6 neutrophils. Significance is determined by a one-way analysis of variance with least significant difference (LSD) comparisons to control (p≤0.05) and IC50 's (μM) are determined by regression analysis (Finney, 1978). Drug effects are expressed as percent change from control values.
# [3] = 10 mg/kg, pretreatment period 6 hr
Structure (SMILES),"% Inhibition of LTB4 [1, 3] [%]",inhibition at 1 µM [2] [%],"% Inhibition of LTB4 ([1]; 25 mg/kg, pretreatment period 3 hr) [%]","% Inhibition of LTB4 ([1]; 5 mg/kg, pretreatment period 6 hr) [%]"
"NC(=O)N(O)Cc1cccc(OCc2csc(-c3ccc(Cl)cc3)n2)c1 [Example 6, 1-Hydroxy-1-[3-[2-(4-chloro-phenyl)-thiazol-4-ylmethoxy]-benzyl]-urea]",67,68,–,–
"Cc1oc(-c2ccccc2)nc1COc1cccc(CN(O)C(N)=O)c1 [Example 1, 1-Hydroxy-1-[3-(5-methyl-2-phenyl-oxazol-4-ylmethoxy)-benzyl]-urea]",–,52,86,–
"NC(=O)N(O)Cc1cccc(OCc2csc(-c3ccccc3)n2)c1 [Example 5, 1-Hydroxy-1-[3-(2-phenyl-thiazol-4-ylmethoxy)-benzyl]-urea]",80,66,–,–
"Cc1oc(-c2ccc(F)cc2)nc1COc1cccc(CN(O)C(N)=O)c1 [Example 9, 1-[3-[2-(4-fluorophenyl)-5-methyl-oxazol-4-ylmethoxy]-benzyl]-1-hydroxy-urea]",50,74,–,–
"Cc1oc(-c2ccccc2)nc1COc1cc(F)cc(CN(O)C(N)=O)c1 [Example 13, 1-[3-Fluoro-5-(5-methyl-2-phenyl-oxazol-4-ylmethoxy)-benzyl]-1-hydroxy-urea]",–,70,–,52
